The assay deals with Recombinant KAT6A/MOZ (488-778) protein (Homo sapiens (Human), UniProt Q92794). The assay can be described thus: KAT6A AlphaLISA Inhibition Screening Assay. In kind it is biochemical. The settings on record: for inhibition at 1 µM: read-out: Average Kat6A % inhibition @ 1 μM; for inhibition at 1 µM / Average Kat6A % inhibition @ 1 μM: 1 μM test compound; for inhibition at 10 µM: read-out: Average Kat6A % inhibition @ 10 μM; for inhibition at 10 µM / Average Kat6A % inhibition @ 10 μM: 10 μM test compound. Summed up:
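AlphaLISA read-out with anti-acetyl-lysine acceptor and streptavidin donor beads, % inhibition relative to vehicle. Reaction: biotinylated histone H3 1-21 (200 nM) and acetyl-CoA (400 nM) with KAT6A 488-778 (25 nM), 120 min at room temperature, pH 8.0, 330 nM TSA, after 60 or 10 min enzyme–compound pre-incubation; 10-point 3-fold series from 10 μM.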

Chain of Recombinant KAT6A/MOZ (488-778) protein (Q92794 488-778): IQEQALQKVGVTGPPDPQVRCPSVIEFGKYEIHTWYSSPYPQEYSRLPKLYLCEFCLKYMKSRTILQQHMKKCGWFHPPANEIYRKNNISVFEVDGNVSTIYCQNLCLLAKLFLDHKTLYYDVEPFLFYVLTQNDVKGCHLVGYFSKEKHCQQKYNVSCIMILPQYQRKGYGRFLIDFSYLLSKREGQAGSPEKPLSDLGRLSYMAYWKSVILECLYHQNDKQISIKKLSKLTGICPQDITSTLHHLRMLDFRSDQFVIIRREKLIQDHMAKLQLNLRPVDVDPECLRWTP

Consider `C#CC(=O)NCc1cnc(Oc2cc(OC)c3c(NS(=O)(=O)c4cc(CC)ccc4OC)noc3c2)s1` [Syn. Ex. 103, N-((2-((3-((5-ethyl-2-methoxyphenyl)sulfonamido)-4-methoxybenzo[d]isoxazol-6-yl)oxy)thiazol-5-yl)methyl)propiolamide], for which the inhibition at 1 µM was 97% and the inhibition at 10 µM turned out to be 99%.
The matching figures for `CCc1ccc(OC)c(S(=O)(=O)Nc2noc3cc(Oc4nc(CNC(=O)OC)cs4)cc(OC)c23)c1` [Syn. Ex. 104, methyl ((2-((3-((5-ethyl-2-methoxyphenyl)sulfonamido)-4-methoxybenzo[d]isoxazol-6-yl)oxy)thiazol-4-yl)methyl)carbamate]: 25% and 92%.
The matching figures for `C=C(F)C(=O)NCc1csc(Oc2cc(OC)c3c(NS(=O)(=O)c4cc(CC)ccc4OC)noc3c2)n1` [Syn. Ex. 105, N-((2-((3-((5-ethyl-2-methoxyphenyl)sulfonamido)-4-methoxybenzo[d]isoxazol-6-yl)oxy)thiazol-4-yl)methyl)-2-fluoroacrylamide]: 68% and 99%.
As to `CCc1ccc(OC)c(S(=O)(=O)Nc2noc3cc(Oc4cccc(CNC(=O)OC)n4)cc(OC)c23)c1` [Syn. Ex. 106, methyl ((6-((3-((5-ethyl-2-methoxyphenyl)sulfonamido)-4-methoxybenzo[d]isoxazol-6-yl)oxy)pyridin-2-yl)methyl)carbamate], the inhibition at 1 µM came out at 10% and the inhibition at 10 µM stood at 44%.
Consider `C#CC(=O)Nc1ccc(Oc2cc(OC)c3c(NS(=O)(=O)c4cc(CC)ccc4OC)noc3c2)nc1` [Syn. Ex. 108, N-(6-((3-((5-ethyl-2-methoxyphenyl)sulfonamido)-4-methoxybenzo[d]isoxazol-6-yl)oxy)pyridin-3-yl)propiolamide], for which the inhibition at 1 µM worked out at 99% and the inhibition at 10 µM was 100%.
Consider `CCc1ccc(OC)c(S(=O)(=O)Nc2noc3cc(Oc4ccc(N)cn4)cc(OC)c23)c1` [Syn. Ex. 109, N-(6-((5-aminopyridin-2-yl)oxy)-4-methoxybenzo[d]isoxazol-3-yl)-5-ethyl-2-methoxybenzenesulfonamide], for which the inhibition at 1 µM was 95% and the inhibition at 10 µM stood at 98%.
The matching figures for `CCc1ccc(OC)c(S(=O)(=O)Nc2noc3cc(Oc4cc(CNC(=O)OC)ccn4)cc(OC)c23)c1` [Syn. Ex. 110, methyl ((2-((3-((5-ethyl-2-methoxyphenyl)sulfonamido)-4-methoxybenzo[d]isoxazol-6-yl)oxy)pyridin-4-yl)methyl)carbamate]: 9% and 58%.
Take `C=C(F)C(=O)NCc1ccnc(Oc2cc(OC)c3c(NS(=O)(=O)c4cc(CC)ccc4OC)noc3c2)c1` [Syn. Ex. 111, N-((2-((3-((5-ethyl-2-methoxyphenyl)sulfonamido)-4-methoxybenzo[d]isoxazol-6-yl)oxy)pyridin-4-yl)methyl)-2-fluoroacrylamide]: the inhibition at 1 µM was 0% and the inhibition at 10 µM amounted to 54%.
For the molecule `C#Cc1ccc(OC)c(S(=O)(=O)Nc2noc3cc(Cn4cc(CNC(=O)OC)cn4)cc(OC)c23)c1` [Syn. Ex. 112, methyl ((1-((3-((5-ethynyl-2-methoxyphenyl)sulfonamido)-4-methoxybenzo[d]isoxazol-6-yl)methyl)-1H-pyrazol-4-yl)methyl)carbamate], the inhibition at 1 µM is 70% and the inhibition at 10 µM was determined as 98%.
For the molecule `C=C(F)C(=O)NCc1cnn(Cc2cc(OC)c3c(NS(=O)(=O)c4cc(CC)ccc4OCCO)noc3c2)c1` [Syn. Ex. 113, N-((1-((3-((5-ethyl-2-(2-hydroxyethoxy)phenyl)sulfonamido)-4-methoxybenzo[d]isoxazol-6-yl)methyl)-1H-pyrazol-4-yl)methyl)-2-fluoroacrylamide], the inhibition at 1 µM turned out to be 98% and the inhibition at 10 µM was found to be 100%.
On the same counts, the results for `C=C(F)C(=O)NCc1cnn(Cc2cc(OC)c3c(NS(=O)(=O)c4cc(CC)ccc4OCc4cnn[nH]4)noc3c2)c1` [Syn. Ex. 114, N-((1-((3-((2-((1H-1,2,3-triazol-5-yl)methoxy)-5-ethylphenyl)sulfonamido)-4-methoxybenzo[d]isoxazol-6-yl)methyl)-1H-pyrazol-4-yl)methyl)-2-fluoroacrylamide] are 100% and 100%.
`CCc1ccc(OCC(=N)NO)c(S(=O)(=O)Nc2noc3cc(Cn4cc(CNC(=O)OC)cn4)cc(OC)c23)c1` [Syn. Ex. 115, methyl ((1-((3-((5-ethyl-2-(2-(hydroxyamino)-2-iminoethoxy)phenyl)sulfonamido)-4-methoxybenzo[d]isoxazol-6-yl)methyl)-1H-pyrazol-4-yl)methyl)carbamate]: the inhibition at 1 µM is 100% and the inhibition at 10 µM was 100%.
Regarding `CCc1ccc(OCc2ncc[nH]2)c(S(=O)(=O)Nc2noc3cc(Cn4cc(CNC(=O)OC)cn4)cc(OC)c23)c1` [Syn. Ex. 116, methyl ((1-((3-((2-((1H-imidazol-2-yl)methoxy)-5-ethylphenyl)sulfonamido)-4-methoxybenzo[d]isoxazol-6-yl)methyl)-1H-pyrazol-4-yl)methyl)carbamate], the inhibition at 1 µM came to 100% and the inhibition at 10 µM was found to be 100%.
In the case of `CCc1ccc(OCc2nc[nH]n2)c(S(=O)(=O)Nc2noc3cc(Cn4cc(CNC(=O)OC)cn4)cc(OC)c23)c1` [Syn. Ex. 117, methyl ((1-((3-((2-((1H-1,2,4-triazol-3-yl)methoxy)-5-ethylphenyl)sulfonamido)-4-methoxybenzo[d]isoxazol-6-yl)methyl)-1H-pyrazol-4-yl)methyl)carbamate], the inhibition at 1 µM turned out to be 100% and the inhibition at 10 µM came to 100%.
In the case of `C=C(F)C(=O)NCc1cnn(Cc2cc(OC)c3c(NS(=O)(=O)c4cc(CC)ccc4OCC(=N)NO)noc3c2)c1` [Syn. Ex. 118, N-((1-((3-((5-ethyl-2-(2-(hydroxyamino)-2-iminoethoxy)phenyl)sulfonamido)-4-methoxybenzo[d]isoxazol-6-yl)methyl)-1H-pyrazol-4-yl)methyl)-2-fluoroacrylamide], the inhibition at 1 µM came out at 97% and the inhibition at 10 µM was found to be 100%.
Take `C=C(F)C(=O)NCc1cnn(Cc2cc(OC)c3c(NS(=O)(=O)c4cc(CC)ccc4OCc4ncc[nH]4)noc3c2)c1` [Syn. Ex. 119, N-((1-((3-((2-((1H-imidazol-2-yl)methoxy)-5-ethylphenyl)sulfonamido)-4-methoxybenzo[d]isoxazol-6-yl)methyl)-1H-pyrazol-4-yl)methyl)-2-fluoroacrylamide]: the inhibition at 1 µM came to 100% and the inhibition at 10 µM turned out to be 100%.
On to `CCc1cc(S(=O)(=O)Nc2noc3cc(Cn4cc(CNC(=O)OC)cn4)cc(OC)c23)c(OC)cn1` [Syn. Ex. 120, methyl ((1-((3-((2-ethyl-5-methoxypyridine)-4-sulfonamido)-4-methoxybenzo[d]isoxazol-6-yl)methyl)-1H-pyrazol-4-yl)methyl)carbamate], for which the “Average Kat6A % inhibition @ 1 μM” value came to 100% and the “Average Kat6A % inhibition @ 10 μM” value is listed as 100%.
As to `CCc1cnc(OC)c(S(=O)(=O)Nc2noc3cc(Cn4cc(CNC(=O)OC)cn4)cc(OC)c23)c1` [Syn. Ex. 121, methyl ((1-((3-((5-ethyl-2-methoxypyridine)-3-sulfonamido)-4-methoxybenzo[d]isoxazol-6-yl)methyl)-1H-pyrazol-4-yl)methyl)carbamate], the “Average Kat6A % inhibition @ 1 μM” value was 100% and the “Average Kat6A % inhibition @ 10 μM” value came out at 94%.
Take `CCc1ccc(OCc2ccc(F)cc2)c(S(=O)(=O)Nc2noc3cc(Cn4cc(CNC(=O)OC)cn4)cc(OC)c23)c1` [Syn. Ex. 122, methyl ((1-((3-((5-ethyl-2-((4-fluorobenzyl)oxy)phenyl)sulfonamido)-4-methoxybenzo[d]isoxazol-6-yl)methyl)-1H-pyrazol-4-yl)methyl)carbamate]: the inhibition at 1 µM is 100% and the inhibition at 10 µM is 100%.
On to `CCc1ccc(OCc2cccnc2)c(S(=O)(=O)Nc2noc3cc(Cn4cc(CNC(=O)OC)cn4)cc(OC)c23)c1` [Syn. Ex. 123, methyl ((1-((3-((5-ethyl-2-(pyridin-3-ylmethoxy)phenyl)sulfonamido)-4-methoxybenzo[d]isoxazol-6-yl)methyl)-1H-pyrazol-4-yl)methyl)carbamate], for which the inhibition at 1 µM turned out to be 100% and the inhibition at 10 µM turned out to be 100%.
Regarding `COC(=O)NCc1cnn(Cc2cc3onc(NS(=O)(=O)c4cc(F)ccc4OC)c3c3c2CCCO3)c1` [Syn. Ex. 124, methyl ((1-((9-((5-fluoro-2-methoxyphenyl)sulfonamido)-3,4-dihydro-2H-chromeno[8,7-d]isoxazol-5-yl)methyl)-1H-pyrazol-4-yl)methyl)carbamate], the inhibition at 1 µM turned out to be 100% and the inhibition at 10 µM is 100%.
For `CCc1ccc(S(=O)(=O)Nc2noc3cc(Cn4cc(CNC(=O)OC)cn4)cc(OC)c23)c(OC)c1` [Syn. Ex. 125, methyl ((1-((3-((4-ethyl-2-methoxyphenyl)sulfonamido)-4-methoxybenzo[d]isoxazol-6-yl)methyl)-1H-pyrazol-4-yl)methyl)carbamate], the inhibition at 1 µM was found to be 100% and the inhibition at 10 µM turned out to be 101%.
`COC(=O)NCc1cnn(Cc2cc(OC)c3c(NS(=O)(=O)c4cc5c(cc4OC)CCO5)noc3c2)c1` [Syn. Ex. 126, methyl ((1-((4-methoxy-3-((5-methoxy-2,3-dihydrobenzofuran)-6-sulfonamido)benzo[d]isoxazol-6-yl)methyl)-1H-pyrazol-4-yl)methyl)carbamate]: the “Average Kat6A % inhibition @ 1 μM” value worked out at 101% and the “Average Kat6A % inhibition @ 10 μM” value is reported as 100%.
